Laboratory results as given in US11498928B2, “Macrocyclic spiroethers as Mcl-1 inhibitors” (ASCENTAGE PHARMA (SUZHOU) CO., LTD., priority 2019, dated 2022).

Experiments:
[1] = molecular target: T1, Mcl-1 protein (residues 171-323) (Homo sapiens, UniProt Q07820); test: Inhibition of Mcl-1 by fluorescence polarization (FP) competitive binding assay with FAM-Bid tracer; conditions: 2 nM FAM-Bid, 20 nM Mcl-1, 30 min
T1 construct: Tag-free Mcl-1 protein (residues 171-323) was used in the FP assay
Protocol: Inhibition of Mcl-1 by Fluorescence Polarization (FP) Assay.
The relative binding potency of representative Compounds of the Disclosure was determined by a fluorescence polarization (FP) assay (Long et al, BMC Biotechnology 13:45 (2013)). The method used a fluorescein labelled peptide (FAM-Bid) which binds to the Mcl-1 protein leading to an increased anisotropy measured in milli-polarization (mP) values using a plate reader. […] Tag-free Mcl-1 protein (residues 171-323) was used in the FP assay (Mady et al, Scientific Reports 8: 10210-10210 (2018); Yang et al, ACS Med. Chem. Lett. 3:308-312 (2012)).
A 10-points serial dilution of each compound was prepared in DMSO and 5 μL solution was transferred into flat bottomed, 96-well back plate (final DMSO concentration 5%). 120 μL of Buffer (PBS, 0.01% BGG (Sigma Cat. #SRE0011), 0.01% Triton X-100), containing the Fluorescein labelled peptide (Final concentration 2 nM) and Mcl-1 protein (final concentration 20 nM) was then added. Assay plates were incubated 30 mins at room temperature with gentle shaking before FP was measured on a Biotek Synergy 1MF reader (Ex. 485 nm, Em. 528 nm, Cut off 510 nm) and mP calculated. The binding of increasing doses of test compounds was expressed as a percentage reduction in mP compared to a window established between 5% DMSO only and 100% inhibition controls (no Mcl-1 protein). 10-points dose response curves were plotted with GraphPad software using Sigmoidal Dose-Response Model and the IC50 values were determined by nonlinear regression fitting of the competition curves. Cell Viability Assay (NCI-H929 cells)

OPM-2 cells = test: Cell viability assay (OPM-2 cells), CCK-8; assay type: cell-based; conditions: 5% FBS
Protocol: OPM-2 cells were obtained from Deutsche Sammlung von Mikroorganismen and Zellkulturen GmbH (DSMZ). Cells were maintained in the recommended culture medium with 10% FBS at 37° C. and an atmosphere of 5% CO2.
The effect of representative Compounds of the Disclosure on cell viability was determined using Cell Counting Kit-8 (CCK-8) assay (Shanghai Life iLab Bio Technology) according to the manufacturer's instructions. Each tested compound was serially diluted in culture medium, 100 μL of the compound dilution was added into 96-well plates. 100 μL of an OPM-2 cell suspension (20000 cells/well) in culture medium were seeded into the corresponding well of the plate and the cells were incubated at 37° C. in an atmosphere of 5% CO2 for 24 hours. In the next day, 20 μL of CCK-8 solution was added to each well of the plate and incubated for 4 hours.
The plates were read at 450 nm on the microplate spectrophotometer (SpectraMax plus 384, Molecular devices). The readings were normalized to the vehicle cells, and the IC50 was calculated by nonlinear regression analysis using GraphPad Prism 6 software.

NCI-H929 cells = test: Cell viability assay (NCI-H929 cells), CCK-8; assay type: cell-based; conditions: 5% FBS
Protocol: NCI-H929 cells were obtained from American Type Culture Collection (ATCC). Cells were maintained in the recommended culture medium (RPMI 1640) with 10% FBS and 0.05 mM BME at 37° C. and an atmosphere of 5% CO2.
The effect of Compounds on cell viability was determined using Cell Counting Kit-8 (CCK-8) assay according to the manufacturer's instructions. 95 μL of NCI-H929 cell suspension (20000 cells/well) in culture medium were seeded into 96-well plates and cultured 4 hrs. Each tested compound was serially diluted in DMSO, then 5 μL of the compound or DMSO was diluted in 95 μL medium once more. At last, 5 μL of the compound dilution was added to the corresponding well of the cell plate. After the addition of the tested compound, the cells were incubated at 37° C. in an atmosphere of 5% CO2 for 24 hrs. At the end, 10 μL of CCK-8 solution was added to each well of the plate and incubated for 1-4 hours. The plates were read at 450 nm on the microplate reader (BioTek Synergy 1MF). The readings were normalized to the vehicle cells, and the IC50 was calculated by nonlinear regression analysis using GraphPad Prism 6 software. Cell Viability Assay (OPM-2 cells)

T1 sequence (Q07820 171-323): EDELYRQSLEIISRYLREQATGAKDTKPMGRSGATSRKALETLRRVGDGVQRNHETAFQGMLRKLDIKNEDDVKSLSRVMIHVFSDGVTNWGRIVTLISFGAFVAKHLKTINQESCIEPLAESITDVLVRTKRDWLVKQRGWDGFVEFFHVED

IC50 [1] [nM] | IC50 (NCI-H929 cells; Homo sapiens, NCI-H929, 24 h) [nM] | IC50 (NCI-H929 cells; 24 h) [nM] | SMILES | IC50 (OPM-2 cells; Homo sapiens, OPM-2, 24 h) [nM] | IC50 (OPM-2 cells; 24 h) [nM]
21 | > 10000 | – | CO[C@H]1C2=C[C@@H](C2)[C@H](C)N(C[C@H]2CCCO2)S(=O)(=O)NC(=O)c2ccc3c(c2)N(C[C@@H]2CC[C@H]21)C[C@@]1(CCCc2cc(Cl)ccc21)CO3 (single isomer, unassigned) [30 (isomer 4)] | > 10000 | –
6.8 | – | 360 | CO[C@H]1C2=CC(CCS(=O)(=O)NC(=O)c3ccc4c(c3)N(C[C@@H]3CC[C@H]31)C[C@@]1(CCCc3cc(Cl)ccc31)CO4)C2 (single isomer, unassigned) [Cpd. No. 1 (Isomer 1)] | – | 547
5.7 | – | 1500 | CO[C@H]1C2=CC(CCS(=O)(=O)NC(=O)c3ccc4c(c3)N(C[C@@H]3CC[C@H]31)C[C@@]1(CCCc3cc(Cl)ccc31)CO4)C2 (single isomer, unassigned) [Cpd. No. 1 (Isomer 2)] | – | 2430
8.3 | – | 4200 | CO[C@@H]1C2=CC(CCS(=O)(=O)NC(=O)c3ccc4c(c3)N(C[C@@H]3CC[C@H]31)C[C@@]1(CCCc3cc(Cl)ccc31)CO4)C2 (single isomer, unassigned) [Cpd. No. 4 (Isomer 1)] | – | 5720
12 | – | 1600 | CO[C@@H]1C2=CC(CCS(=O)(=O)NC(=O)c3ccc4c(c3)N(C[C@@H]3CC[C@H]31)C[C@@]1(CCCc3cc(Cl)ccc31)CO4)C2 (single isomer, unassigned) [Cpd. No. 4 (Isomer 2)] | – | 2120
4.8 | – | 120 | CO[C@H]1C2=CC(C2)C(C)(C)CS(=O)(=O)NC(=O)c2ccc3c(c2)N(C[C@@H]2CC[C@H]21)C[C@@]1(CCCc2cc(Cl)ccc21)CO3 (single isomer, unassigned) [Cpd. No. 5 (Isomer 1)] | – | 411
8.3 | – | 1600 | CO[C@H]1C2=CC(C2)C(C)(C)CS(=O)(=O)NC(=O)c2ccc3c(c2)N(C[C@@H]2CC[C@H]21)C[C@@]1(CCCc2cc(Cl)ccc21)CO3 (single isomer, unassigned) [Cpd. No. 5 (Isomer 2)] | – | 5210
5.2 | – | 870 | CO[C@@H]1C2=CC(C2)C(C)(C)CS(=O)(=O)NC(=O)c2ccc3c(c2)N(C[C@@H]2CC[C@H]21)C[C@@]1(CCCc2cc(Cl)ccc21)CO3 (single isomer, unassigned) [Cpd. No. 6 (Isomer 1)] | – | 1300
6.3 | – | 3400 | CO[C@@H]1C2=CC(C2)C(C)(C)CS(=O)(=O)NC(=O)c2ccc3c(c2)N(C[C@@H]2CC[C@H]21)C[C@@]1(CCCc2cc(Cl)ccc21)CO3 (single isomer, unassigned) [Cpd. No. 6 (Isomer 2)] | – | 2870
4.4 | – | 680 | CC[C@@H]1CS(=O)(=O)NC(=O)c2ccc3c(c2)N(C[C@@H]2CC[C@H]2[C@@H](OC)C2=CC1C2)C[C@@]1(CCCc2cc(Cl)ccc21)CO3 (single isomer, unassigned) [Cpd. No. 9 (Isomer 1)] | – | 1170
3.9 | – | 210 | CC[C@@H]1CS(=O)(=O)NC(=O)c2ccc3c(c2)N(C[C@@H]2CC[C@H]2[C@@H](OC)C2=CC1C2)C[C@@]1(CCCc2cc(Cl)ccc21)CO3 (single isomer, unassigned) [Cpd. No. 9 (Isomer 2)] | – | 260
4.9 | – | 1700 | CC[C@@H]1CS(=O)(=O)NC(=O)c2ccc3c(c2)N(C[C@@H]2CC[C@H]2[C@@H](OC)C2=CC1C2)C[C@@]1(CCCc2cc(Cl)ccc21)CO3 (single isomer, unassigned) [Cpd. No. 10 (Isomer 1)] | – | 2500
4.9 | – | 780 | CC[C@@H]1CS(=O)(=O)NC(=O)c2ccc3c(c2)N(C[C@@H]2CC[C@H]2[C@@H](OC)C2=CC1C2)C[C@@]1(CCCc2cc(Cl)ccc21)CO3 (single isomer, unassigned) [Cpd. No. 10 (Isomer 2)] | – | 1130
